Laboratory results: US5885834A, “Antisense oligodeoxynucleotide against phosphodiesterase” (priority 1997, dated 1999)
“Also recorded” adds a separate entry of the source.

Tests used:
Format in all cases: cell-based, human
[1] = system: isolated, quiescent HPBL; assay: TUNEL assay of apoptosis, flow cytometry, quiescent HPBL; conditions: isolated, quiescent HPBL in culture, ODN added
Source text: (§1) Nevertheless, the effects of AS ODNs on HPBL can still be tested by quantifying and comparing the percentage of cells undergoing apoptosis in the presence and absence of the AS ODN. Apoptosis detected by examining endonuclease-digested DNA, commonly referred to as the DNA laddering technique, has been employed and the results therefrom are set forth in FIG. 5. However, we prefer to use a TUNEL assay, an acronym for terminal deoxynucleotidyl transferase (TdT)-mediated dUTP nick end labeling, which more readily allows quantitation of the percentage of cells undergoing apoptosis. The principle of the TUNEL assay is that endonuclease digestion during apoptosis results in the formation of 3'-OH ends in the digested DNA. The digested DNA in the apoptotic cells can then be labeled with fluorescein by catalytically incorporating fluorescein-12-dUTP at the 3'-OH ends using the TdT enzyme. Fluorescence can then be quantitated by flow cytometry, using a fluorescence activated cell sorter (FACS), which would give a measure of the number of cells undergoing apoptosis. An example of the appearance of a population of fluorescein labeled apoptotic cells, as evidenced by flow cytometry, following TUNEL assay labeling of the cells, is shown in FIGS. 6A-C. Cells were then cultured for 3 days with 10 μg/ml PHA-P (Sigma), in the absence of any ODN (FIG. 6A), in the presence of 30 μM NS ODN (FIG. 6B), or in the presence of 30 μM AS ODN (FIG. 6C). Cells were then collected by centrifugation and fluorescein labeled by the TUNEL assay using the Promega Apoptosis Detection System. Flow cytometry was performed on a Beckton Dickinson FACScan by the FACS facility.
The procedure for analyzing apoptosis by the TUNEL method uses either an In Situ Cell Death Kit, Fluorescein from Boehringer Mannheim or an Apoptosis Detection System, Fluorescein from Promega and follows the protocols of the manufacturers. The data in FIGS. 6 and 7 was obtained using the manufacturer's protocol for the Apoptosis Detection System, Fluorescein from Promega. […]

[2] = system: PHA-stimulated HPBL; assay: TUNEL assay of apoptosis, flow cytometry, PHA-stimulated HPBL; conditions: 10 μg/ml PHA-P; 30 μM ODN; 3 days
Source text: as §1, with “Cells were then cultured for 3 days with 10 μg/ml PHA-P (Sigma), in the absence of any ODN (FIG. 6A), in the presence of 30 μM NS ODN (FIG. 6B), or in the presence of 30 μM AS ODN (FIG. 6C). Cells were then collected by centrifugation and fluorescein labeled by the TUNEL assay using the Promega Apoptosis Detection System. Flow cytometry was performed on a Beckton Dickinson FACScan by the FACS facility.” left out

[3] = system: β-actin mRNA in RPMI 8392 cells; assay: Quantitative RT-PCR of β-actin mRNA (control gene) after ODN treatment; conditions: 10 or 30 μM ODN, 1 and 2 days
Source text: This is usually determined by looking at the reduction or disappearance of the protein product, either by selective measurement of an enzymatic activity of the protein, where applicable, or by immunoquantitation with specific antibodies by Western blot or ELISA techniques. Also, when PO or PS ODNs are used, which are capable of activating RNase H activity, it is expected that the mRNA of the targeted gene would be down regulated, most of the time, along with the protein product, and this can be readily tested by Northern blot analysis or PCR techniques. Using quantitative RT-PCR with primers specific for PDE1B1, we examined the RPMI 8392 cells for the presence of PDE1B1 mRNA. […] NS ODN, at these concentrations, had no effect on the expression of PDE1B1 mRNA. […]
HPBL were isolated from a normal human donor and placed in culture with (+PHA) or without (-PHA) phytohemagglutinin for 3 days. Quantitative RT-PCR was performed with 2 μg of HPBL RNA, using reagents and protocol from GIBCO/BRL. […]
(§2) Using quantitative RT-PCR, the effect of AS ODN and NS ODN on the level of mRNA for PDE1B1 in RPMI 8392 cells was examined. Quantitative RT-PCR was used to determine the relative amounts of β-actin and PDE1B1 mRNAs present in RPMI 8392 cells after 1 and 2 days in culture with 10 μM and 30 μM AS ODN (AS) and NS ODN (NS). […]

[4] = system: PDE1B1 mRNA in RPMI 8392 cells; assay: Quantitative RT-PCR of PDE1B1 mRNA after ODN treatment; conditions: 10 or 30 μM ODN
Source text: This is usually determined by looking at the reduction or disappearance of the protein product, either by selective measurement of an enzymatic activity of the protein, where applicable, or by immunoquantitation with specific antibodies by Western blot or ELISA techniques. Also, when PO or PS ODNs are used, which are capable of activating RNase H activity, it is expected that the mRNA of the targeted gene would be down regulated, most of the time, along with the protein product, and this can be readily tested by Northern blot analysis or PCR techniques. Using quantitative RT-PCR with primers specific for PDE1B1, we examined the RPMI 8392 cells for the presence of PDE1B1 mRNA. […] NS ODN, at these concentrations, had no effect on the expression of PDE1B1 mRNA. […] In this connection, the expression of β-actin is unaffected by cAMP and, therefore, β-actin mRNA levels were used as a control. Another gene that is often also used for control measurements for this purpose is that of glyceraldehyde-3-phosphate dehydrogenase (G3PDH).
HPBL were isolated from a normal human donor and placed in culture with (+PHA) or without (-PHA) phytohemagglutinin for 3 days. Quantitative RT-PCR was performed with 2 μg of HPBL RNA, using reagents and protocol from GIBCO/BRL. Degenerate 23 nt primers were synthesized based on reported sequences for PDE1B1. The sequence of the forward primer (Primer 1) corresponds to nt -34 to -12 and the sequence of the reverse primer (Primer 2) is complementary to nt 277 to 299 of the PDE1B1 cDNA. […]
as §2

Substance	Rate of formation of apoptotic HPBL cells (TUNEL) [1]	Apoptosis in PHA-stimulated HPBL (TUNEL) [2]	Levels of β-actin mRNA [3]	Level of PDE1B1 mRNA expression ([4]; 1 day)	Level of PDE1B1 mRNA expression ([4]; 2 days)	Level of PDE1B1 mRNA expression ([4]; 1 and 2 days)
5'-GGACAGCTCCATGCTCAG-3' (phosphorothioate, further chemistry not given here) [AS ODN, 18 nt phosphorothioate antisense oligodeoxynucleotide targeted against the translation initiation region of PDE1B1]	unchanged	show the appearance of a population of highly fluorescein labeled cells; also recorded: induced apoptosis	unaltered; also recorded: unchanged	diminished	absent; also recorded: almost undetectable	
5'-TACGTGAGGCACCTACGC-3' (phosphorothioate, further chemistry not given here) [NS ODN, control phosphorothioate nonsense ODN, same base composition as the AS ODN in random, scrambled order]	no different from control	do not show the appearance of this population; also recorded: no effect	no effect; also recorded: unchanged			no effect
